Source: US20260034065A1, “EXTENDED RELEASE PHARMACEUTICAL FORMULATION” (Douglas Pharmaceuticals Ltd., priority 2020, published 2026)

Columns and labels:
[1] = Study ZPS-603 Cohort 4: mood ratings (HAMA, FQ, MADRS) in patients with TRD/TRA; type: in vivo, human; settings: study 603 cohort 4 participants (FIG. 7)
Method: The objective of Cohort 4 was to evaluate efficacy, safety, PK and PD of an extended release ketamine oral formulation in patients with treatment-resistant depression and/or treatment-resistant anxiety (TRD/TRA). […] The design was an open label multiple ascending dose study. The initial dose was 60 mg, and could be escalated by an additional 60 mg 12 hourly, based on assessment of mood symptoms, to a maximum dose of 240 mg, with a total of 7 doses given 12 hourly between 0 and 72 hours. Endpoints included safety, tolerability, ketamine and norketamine PK, and PD (mood ratings including the Fear Questionnaire (FQ; Marks 1979), HAMA and MADRS, and dissociative symptom rating scale scores).
Anxiety Rating Scales: HAMA and FQ: Individual and group mean HAMA and FQ scores by timepoint are shown in FIG. 6 (6A: HAMA; 6B: FQ) There was a consistent trend for both scores to decrease over time, most noticeably in patients with higher baseline scores. […] All seven participants were assessed to be treatment responders (>50% reduction) based on changes in
There was a consistent trend for scores to decrease over time, most noticeably in patients with higher baseline scores. All seven participants were assessed to be treatment responders (>50% reduction) based on change in MADRS scores. […]

[2] = injected by any route of administration, e.g. Loo 2016; cited from earlier work
[3] = subcutaneous dosing, unpublished data

## CNC1(c2ccccc2Cl)CCCCC1=O (stereo not drawn) [Ketamine solution, 2-(2-chlorophenyl)-2-(methylamino) cyclohexan-1-one]
[1]
  onset of improvement of anxiety symptoms: 1 to 2 h
[2]
  duration of marked dissociative symptoms after dosing: up to 60 minutes
[3]
  Mean Tmax-ketamine: 38.4 min
